Laboratory results taken from patent publication EP0361645B1, “Organic hydrazine derivatives for pharmaceutical use” (ROHM AND HAAS COMPANY, priority 1988, dated 1990).

How the values were obtained:
helminths = settings: stated as known; cited from earlier work
M. sexta = test: Hemolymph ecdysteroid titers (radioimmunoassay) and weight gain of fourth instar M. sexta fed compound in artificial diet; format: in vivo, Manduca sexta
Protocol: The invention will now be further described by way of exemplification and by reference to the drawings in which; • Figure 1. Both 20-hydroxyecdysone and Example No. 3 induce process elaboration (A) and inhibition of cell proliferation (B) in Kr cells in a dose-dependent manner. Initial cell density was 2 X 10^6 cells/ml; after incubation of 1 ml aliquots of the cells with the compound for 48 hours the cells were triturated gently and the percentage of cells responding (with processes longer than approximately 17 um, see Cherbas et al. 189 Wilhelm Roux's Arch. 1 (1980)) and total cell density was determined by hemocytom- eter counting, relative to ethanol (1 ul)-treated controls. Determinations were in triplicate for each dose. […] Induction of acetylcholinesterase by varying concentrations of 20-hydroxyecdysone and Example No. 3. Kr cells at an initial density of 3 X 10^6 cells/ml (10 ml per sample) were incubated with the agonist for three days. After harvesting, by centrifugation at 3000 X g, the cell pellets were washed with Robb's Drosophila saline (18, 2 X 5 ml) at 4 ° C, then lysed by sonication in 1 ml of phosphate buffer (pH 7.4, I = 0.1 M) containing 0.5 M NaCI, 0.25 M EDTA and 0.5% TRITON? X-100. See Cherbas, 197 Science 275 (1977). Triton is a registered trademark of Rohm and Haas Company for a alkylaryl polyoxyethylene glycol surfactant. After centrifugation at 16,000 X g, the supernatants were assayed for acetylcholinesterase activity by an adaptation of the method of Ellman et al., 7 Biochem. Pharmacol. 88 (1961), by subtracting out any 412 nm absorbance observed in incubations in the presence of 2 X 10-5 eserine sulfate. Thus reaction mixtures contained 50 ul of enzyme extract, 20 ul eserine (blank tubes only) and 1.0 ml of 0.5 mM acetylthiocholine, 0.3 mM dithiobisnitrobenzoic acid in phosphate buffer (pH 7.4, I = 0.1 M). Incubations were at 25 ° C for two hours; reactions in active tubes were terminated by addition of eserine. Absorbance at 412 nm was then measured. Protein concentration in extracts was measured by the Biorad method. […] Scatchard plot of ^3H-ponasterone A binding to Kr cell cytosolic receptor extracts in the presence of differing concentrations of Example No. 3. Cytosolic extract preparation and ecdysteroid receptor assays were essentially as described in Sage, 111 Meth. in Enzymol. 458 (1985). Example No. 3 was added in 1 ul DMSO to 50 ul of radioligand in 10 mM Tris buffer (pH 7.2) and 50 ul of undiluted cytosol extract. After incubation overnight at 0.5 ° C, bound label was separated from free by addition of 300 ul 1% HCI-washed charcoal (Sigma) and 0.1% Dextran T70 (Pharmacia) in Tris buffer, centrifugation (13,000 X g, 3 min, 4 ° C) and liquid scintillation counting of a 300 ul aliquot of the supernatant in 15 ml Hydrofluor (National Diagnostics). Points are means of duplicate determinations. […] Relative ability of 20 hydroxyecdysone and Example No. 3 to displace ^3H-ponasterone A from cytosolic receptor extracts. Conditions were as in Figure 3 except that only 0.5 nM ponasterone A was used. • Points are means of duplicate determinations. For 20-hydroxyecdysone EC50 = 0.1 uM while for Example No. 3 EC50 = 3.0 uM. Control binding = 10 femtomoles ^3H-ponasterone A bound per mg cytosol protein. • Figure 4. […] Ecdysteroid titers were measured by a radioimmunoassay adapted from Warren et al., 40 Experientia 393 (1984) with Protein A-Staph. aureus suspension (Sigma) used as the reagent to separate bound from free ligand. […]

[1] = Hemolymph titers of 14C-Example No. 3 in L5 hornworms after feeding; format: in vivo, M. sexta
[2] = system: ligated M. sexta abdomens (L5D3); test: Onset of pupal development in ligated L5D3 M. sexta abdomens (injection); format: in vivo; settings: injected into L5D3 abdomens, events related to pupal formation
Protocol: L4D1 means fourth instar, first day after molting. L4 animals 36 hours after ecdysis were ligated, decapitated and next day injected with varying doses of compound in 1 - 2 ul DMSO. They were scored as follows: 0 = normal L4 abdomens with no L5 crochets or spiracle apolysis; 1 = exposed dorsal vessel (response to moderate levels of molting hormone in the presence of low JH levels); 2 = L5 crochets formed but no spiracle apolysis; 3 = L5 crochets formed and mild spiracle apolysis; 4 = strong molting response, both L5 crochets and spiracle cuticle synthesized. These methods are an adaptation of the method of J. W. Truman, L. M. Riddiford, L. Safranek, 39 Dev. Biol 247 (1974). Injection and scoring of L5D3 abdomens (weighing 6.5 - 7.5 g) are also adaptations of previous methods in H. F. Nijhout, 22 J. Insect Physiol. 453 (1976). […] Animals were held over moistened filter paper at 25 ° C and were scored after three days. […] For both L4 and L5 abdomens, 50% effective doses were determined by plotting the mean score for all individuals vs. dose, then determining the dose which gives a score of 2.0 and 1.5 respectively. Intact L5D0 hornworms were either allowed to feed on treated commercial black cutworm diet or injected into a proleg and scored after 48 hours. The 50% effective dose was calculated by plotting percentage of the population bearing a prematurely apolysed head capsule vs. dose. […]

antiecdysone antiserum = test: Binding by antiecdysone antiserum (radioimmunoassay)
Protocol: The invention will now be further described by way of exemplification and by reference to the drawings in which; • Figure 1. Both 20-hydroxyecdysone and Example No. 3 induce process elaboration (A) and inhibition of cell proliferation (B) in Kr cells in a dose-dependent manner. Initial cell density was 2 X 10^6 cells/ml; after incubation of 1 ml aliquots of the cells with the compound for 48 hours the cells were triturated gently and the percentage of cells responding (with processes longer than approximately 17 um, see Cherbas et al. 189 Wilhelm Roux's Arch. 1 (1980)) and total cell density was determined by hemocytom- eter counting, relative to ethanol (1 ul)-treated controls. Determinations were in triplicate for each dose. […] Induction of acetylcholinesterase by varying concentrations of 20-hydroxyecdysone and Example No. 3. Kr cells at an initial density of 3 X 10^6 cells/ml (10 ml per sample) were incubated with the agonist for three days. After harvesting, by centrifugation at 3000 X g, the cell pellets were washed with Robb's Drosophila saline (18, 2 X 5 ml) at 4 ° C, then lysed by sonication in 1 ml of phosphate buffer (pH 7.4, I = 0.1 M) containing 0.5 M NaCI, 0.25 M EDTA and 0.5% TRITON? X-100. See Cherbas, 197 Science 275 (1977). Triton is a registered trademark of Rohm and Haas Company for a alkylaryl polyoxyethylene glycol surfactant. After centrifugation at 16,000 X g, the supernatants were assayed for acetylcholinesterase activity by an adaptation of the method of Ellman et al., 7 Biochem. Pharmacol. 88 (1961), by subtracting out any 412 nm absorbance observed in incubations in the presence of 2 X 10-5 eserine sulfate. […] Absorbance at 412 nm was then measured. Protein concentration in extracts was measured by the Biorad method. […] Ecdysteroid titers were measured by a radioimmunoassay adapted from Warren et al., 40 Experientia 393 (1984) with Protein A-Staph. aureus suspension (Sigma) used as the reagent to separate bound from free ligand. […]

[3] = system: dipteran larvae (both houseflies and mosquitoes) and certain coleopteran larvae; test: Control of larvae and ovariole development in other insect orders; format: in vivo
Source text: We have observed the induction of premature head capsule apolysis by Example No. 3 in all larval stages of M. sexta. This phenomenon has also been observed in larval Lepidoptera of the families Noctuidae, Pyralidae and Pieridae. […] This latter activity is consistent with its putative ecdysonergic mechanism of action.

[4] = L4 M. sexta, 10 ppm in artificial diet

Row | SMILES | control of helminths (helminths) | ecdysone titers relative to control levels (M. sexta; L4D0 animals, within four hours after the initiation of feeding) | outcome of the molt (M. sexta; L4 M. sexta treated larvae) | feeding and weight gain (M. sexta; [4]) | immunoreactive ecdysone titers (M. sexta; [4]) | time to head capsule slippage (M. sexta; [4]) | peak hemolymph concentration relative to concentrations required for a 50% response in Kr cell process elaboration and ^3H-ponasterone A displacement ([1]; 10 ug/g oral dose) | concentration at 36 h ([1]; tobacco hornworm, hemolymph, po, 10 ug/g in diet, for at least 36 hours thereafter, read-out: residual hemolymph level) | Cmax at 6 h ([1]; tobacco hornworm, hemolymph, po, L5D0 larvae, 10 ug/g in diet, at six hours after the initiation of feeding, read-out: peak hemolymph concentration) | times as potent as 20-hydroxyecdysone [2] | binding by antiecdysone antiserum (antiecdysone antiserum; 1 X 10^-4 M) | fold lower binding affinity than 20-hydroxyecdysone (antiecdysone antiserum; antiecdysone antiserum) | control of larvae ([3]; houseflies, mosquitoes, certain coleopteran larvae) | ovariole development ([3]; in all three orders)
1 | CC(C)(O)CC[C@@H](O)[C@](C)(O)[C@H]1CC[C@@]2(O)C3=CC(=O)[C@@H]4C[C@@H](O)[C@@H](O)C[C@]4(C)[C@H]3CC[C@]12C [20-hydroxyecdysone, reference compound] | controls helminths | – | – | – | – | – | – | – | – | – | – | – | – | –
2 | CC(C)(C)N(NC(=O)c1ccccc1)C(=O)c1ccccc1 [Example No. 3, N'-t-butyl-N,N'-dibenzoylhydrazine] | – | significantly depressed | eventually died without completing the molt | further feeding and weight gain ceases | without any elevation of ecdysone titers | 24 h | 3 to 5 fold | ~3 µM | 16 µM | 30 times | not significantly bound | > 3125 fold | controls | inhibit ovariole development
